Converted amounts (≈) assume the structure as drawn.
What was measured:
Assay type in all cases: functional
Pyricularia oryzae = test: Antifungal activity against Magnaporthe oryzae on potato sucrose agar medium at 28 or 20 degC for 2 or 3 days
Botrytis cinerea = test: Antifungal activity against Botryotinia fuckeliana on potato sucrose agar medium at 28 or 20 degC for 2 or 3 days
[1] = test system: Colletotrichum gloeosporioides; test: Antifungal activity against Glomerella cingulata on potato sucrose agar medium at 28 or 20 degC for 2 or 3 days
Sclerotinia sclerotiorum = test: Antifungal activity against Sclerotinia sclerotiorum on potato sucrose agar medium at 28 or 20 degC for 2 or 3 days
Colletotrichum lagenaria = test: Antifungal activity against Colletotrichum lagenaria on potato sucrose agar medium at 28 or 20 degC for 2 or 3 days
Monilinia fructicola = test: Antifungal activity against Monilinia fructicola on potato sucrose agar medium at 28 or 20 degC for 2 or 3 days
Bipolaris oryzae = test: Antifungal activity against Bipolaris oryzae on potato sucrose agar medium at 28 or 20 degC for 2 or 3 days
Alternaria mali = test: Antifungal activity against Alternaria mali on potato sucrose agar medium at 28 or 20 degC for 2 or 3 days
Rhizoctonia solani = test: Antifungal activity against Rhizoctonia solani on potato sucrose agar medium at 28 or 20 degC for 2 or 3 days
Fusarium fujikuroi = test: Antifungal activity against Fusarium fujikuroi on potato sucrose agar medium at 28 or 20 degC for 2 or 3 days
Triticum aestivum = test: Inhibition of Triticum aestivum (wheat) Nourin 64 growth assessed as first leaf sheath length of seedlings measured as growth rate at 125 ug/ml for 24 hr relative to control; parameters: scale not given: the % may be the effect or the level left
Cucumis sativus = test: Inhibition of Cucumis sativus (cucumber) growth assessed as stem length of first leaf of seedlings measured as growth rate at 125 ug/ml for 24 hr relative to control; parameters: scale not given: the % may be the effect or the level left
[2] = test system: Fusarium oxysporum f. sp. cucumerinum; test: Antifungal activity against Fusarium oxysporum f. sp. cucumerinum on potato sucrose agar medium at 28 or 20 degC for 2 or 3 days
Cercospora beticola = test: Antifungal activity against Cercospora beticola on potato sucrose agar medium at 28 or 20 degC for 2 or 3 days

Compound	MIC (Pyricularia oryzae) [µg/mL]	MIC (Botrytis cinerea) [µg/mL]	MIC [1] [µg/mL]	MIC (Sclerotinia sclerotiorum) [µg/mL]	MIC (Colletotrichum lagenaria) [µg/mL]	MIC (Monilinia fructicola) [µg/mL]	MIC (Bipolaris oryzae) [µg/mL]	MIC (Alternaria mali) [µg/mL]	MIC (Rhizoctonia solani) [µg/mL]	MIC (Fusarium fujikuroi) [µg/mL]	Activity (Triticum aestivum) [%]	Activity (Cucumis sativus) [%]	MIC [2] [µg/mL]	MIC (Cercospora beticola) [µg/mL]
CC[C@H]1CC[C@@H](Cc2ccc(Cl)cc2)[C@]1(O)Cn1cncn1	25 (≈ 78.2 µM)	25 (≈ 78.2 µM)	25 (≈ 78.2 µM)	100 (≈ 313 µM)	50 (≈ 156 µM)	1.6 (≈ 5 µM)	50 (≈ 156 µM)	> 100	100 (≈ 313 µM)	> 100	77	98	> 100	> 100
CC(C)[C@@H]1CC[C@@H](Cc2ccc(Cl)cc2)[C@]1(O)Cn1cncn1	13 (≈ 38.9 µM)	25 (≈ 74.9 µM)	25 (≈ 74.9 µM)	> 100	50 (≈ 150 µM)	< 0.2	50 (≈ 150 µM)	> 100	> 100	> 100	92	104	> 100	> 100
CC(C)C[C@H]1CC[C@@H](Cc2ccc(Cl)cc2)[C@]1(O)Cn1cncn1	100 (≈ 287 µM)	> 100	> 100	> 100	> 100	> 100	> 100	> 100	> 100	> 100	115	104	> 100	> 100
CC(C)[C@@H]1CC[C@H](Cc2ccc(Cl)cc2)[C@@]1(O)Cn1cncn1	3.1 (≈ 9.29 µM)	0.2 (≈ 0.599 µM)	1.6 (≈ 4.79 µM)	< 0.2	0.8 (≈ 2.4 µM)	< 0.2	13 (≈ 38.9 µM)	6.3 (≈ 18.9 µM)	13 (≈ 38.9 µM)	0.2 (≈ 0.599 µM)	105	118	3.1 (≈ 9.29 µM)	25 (≈ 74.9 µM)
CCC[C@@H]1CC[C@H](Cc2ccc(Cl)cc2)[C@@]1(O)Cn1cncn1	6.3 (≈ 18.9 µM)	1.6 (≈ 4.79 µM)	3.1 (≈ 9.29 µM)	3.1 (≈ 9.29 µM)	50 (≈ 150 µM)	0.4 (≈ 1.2 µM)	25 (≈ 74.9 µM)	> 100	100 (≈ 300 µM)	1.6 (≈ 4.79 µM)	102	110	6.3 (≈ 18.9 µM)	100 (≈ 300 µM)
C[C@H]1CC[C@@H](Cc2ccc(Cl)cc2)[C@]1(O)Cn1cncn1	50 (≈ 164 µM)	100 (≈ 327 µM)	> 100	> 100	> 100	13 (≈ 42.5 µM)	> 100	> 100	> 100	> 100	92	97	> 100	> 100
C[C@@H]1CC[C@H](Cc2ccc(Cl)cc2)[C@@]1(O)Cn1cncn1	3.1 (≈ 10.1 µM)	3.1 (≈ 10.1 µM)	13 (≈ 42.5 µM)	3.1 (≈ 10.1 µM)	100 (≈ 327 µM)	< 0.2	25 (≈ 81.8 µM)	> 100	> 100	3.1 (≈ 10.1 µM)	38	43	> 100	> 100
CC(C)[C@H]1CC[C@@H](Cc2ccc(Cl)cc2)[C@]1(O)Cn1cncn1	100 (≈ 300 µM)	25 (≈ 74.9 µM)	25 (≈ 74.9 µM)	50 (≈ 150 µM)	> 100	< 0.2	50 (≈ 150 µM)	> 100	100 (≈ 300 µM)	> 100	109	117	> 100	> 100
O[C@]1(Cn2cncn2)CCC[C@@H]1Cc1ccc(Cl)cc1	6.3 (≈ 21.6 µM)	3.1 (≈ 10.6 µM)	25 (≈ 85.7 µM)	13 (≈ 44.6 µM)	> 100	< 0.2	25 (≈ 85.7 µM)	> 100	> 100	13 (≈ 44.6 µM)	41	80	> 100	> 100
CC(C)C[C@@H]1CC[C@H](Cc2ccc(Cl)cc2)[C@@]1(O)Cn1cncn1	6.3 (≈ 18.1 µM)	1.6 (≈ 4.6 µM)	3.1 (≈ 8.91 µM)	3.1 (≈ 8.91 µM)	100 (≈ 287 µM)	3.1 (≈ 8.91 µM)	50 (≈ 144 µM)	> 100	> 100	3.1 (≈ 8.91 µM)	112	109	> 100	> 100
CCCC[C@H]1CC[C@@H](Cc2ccc(Cl)cc2)[C@]1(O)Cn1cncn1	25 (≈ 71.9 µM)	> 100	> 100	> 100	> 100	50 (≈ 144 µM)	> 100	> 100	100 (≈ 287 µM)	> 100	112	117	> 100	> 100
O[C@@]1(Cn2cncn2)CCC[C@H]1Cc1ccc(Cl)cc1	100 (≈ 343 µM)	> 100	> 100	> 100	> 100	13 (≈ 44.6 µM)	> 100	> 100	> 100	> 100	94	90	> 100	> 100
CCC[C@H]1CC[C@@H](Cc2ccc(Cl)cc2)[C@]1(O)Cn1cncn1	50 (≈ 150 µM)	50 (≈ 150 µM)	> 100	> 100	> 100	13 (≈ 38.9 µM)	100 (≈ 300 µM)	> 100	100 (≈ 300 µM)	> 100	97	104	> 100	> 100
CC[C@@H]1CC[C@@H](Cc2ccc(Cl)cc2)[C@]1(O)Cn1cncn1	13 (≈ 40.6 µM)	13 (≈ 40.6 µM)	13 (≈ 40.6 µM)	25 (≈ 78.2 µM)	100 (≈ 313 µM)	0.4 (≈ 1.25 µM)	25 (≈ 78.2 µM)	100 (≈ 313 µM)	100 (≈ 313 µM)	25 (≈ 78.2 µM)	69	110	> 100	50 (≈ 156 µM)
CC[C@@H]1CC[C@H](Cc2ccc(Cl)cc2)[C@@]1(O)Cn1cncn1	3.1 (≈ 9.69 µM)	0.8 (≈ 2.5 µM)	0.4 (≈ 1.25 µM)	0.8 (≈ 2.5 µM)	1.6 (≈ 5 µM)	< 0.2	25 (≈ 78.2 µM)	25 (≈ 78.2 µM)	100 (≈ 313 µM)	< 0.2	104	100	6.3 (≈ 19.7 µM)	50 (≈ 156 µM)
CCCC[C@@H]1CC[C@H](Cc2ccc(Cl)cc2)[C@@]1(O)Cn1cncn1	6.3 (≈ 18.1 µM)	3.1 (≈ 8.91 µM)	6.3 (≈ 18.1 µM)	3.1 (≈ 8.91 µM)	> 100	6.3 (≈ 18.1 µM)	25 (≈ 71.9 µM)	> 100	100 (≈ 287 µM)	3.1 (≈ 8.91 µM)	98	121	50 (≈ 144 µM)	> 100
CC(C)[C@H]1CC[C@H](Cc2ccc(Cl)cc2)[C@@]1(O)Cn1cncn1	1.6 (≈ 4.79 µM)	0.4 (≈ 1.2 µM)	0.4 (≈ 1.2 µM)	0.8 (≈ 2.4 µM)	< 0.2	< 0.2	13 (≈ 38.9 µM)	3.1 (≈ 9.29 µM)	100 (≈ 300 µM)	0.2 (≈ 0.599 µM)	96	113	0.4 (≈ 1.2 µM)	13 (≈ 38.9 µM)
CC[C@H]1CC[C@H](Cc2ccc(Cl)cc2)[C@@]1(O)Cn1cncn1	1.6 (≈ 5 µM)	< 0.2	< 0.2	< 0.2	3.1 (≈ 9.69 µM)	< 0.2	6.3 (≈ 19.7 µM)	1.6 (≈ 5 µM)	50 (≈ 156 µM)	< 0.2	100	123	1.6 (≈ 5 µM)	1.6 (≈ 5 µM)

— ChEMBL document CHEMBL3045771, “Structure-Activity Relationships of Enantiomers of the Azole Fungicide Ipconazole and Its Related Compounds” (1998)
